Assay results reported in patent publication US20260374739A1, “SMALL MOLECULAR WEIGHT CHEMICAL COMPOUND TO ANTAGONIZE EPH-EPHRIN TETRAMERIZATION AND INHIBIT BIDIRECTIONAL SIGNALING” (THE BOARD OF REGENTS OF THE UNIVERSITY OF TEXAS SYSTEM, priority 2022, published 2026).

molecular target: T1, EphB1-EphrinB2 (EB2) (Rattus norvegicus, UniProt P09759); test: Alpha assay EphB1-EphrinB2 (EB2) interaction; assay type: binding, mouse EB2; conditions: not given
T1 construct: rat EphB1-Fc residues 18-538; mouse EB2-His residues 18-232; purchased R&D Systems (EphB1-Fc); Sino Biologicals (EB2-His)
T1 sequence (P09759 18-538): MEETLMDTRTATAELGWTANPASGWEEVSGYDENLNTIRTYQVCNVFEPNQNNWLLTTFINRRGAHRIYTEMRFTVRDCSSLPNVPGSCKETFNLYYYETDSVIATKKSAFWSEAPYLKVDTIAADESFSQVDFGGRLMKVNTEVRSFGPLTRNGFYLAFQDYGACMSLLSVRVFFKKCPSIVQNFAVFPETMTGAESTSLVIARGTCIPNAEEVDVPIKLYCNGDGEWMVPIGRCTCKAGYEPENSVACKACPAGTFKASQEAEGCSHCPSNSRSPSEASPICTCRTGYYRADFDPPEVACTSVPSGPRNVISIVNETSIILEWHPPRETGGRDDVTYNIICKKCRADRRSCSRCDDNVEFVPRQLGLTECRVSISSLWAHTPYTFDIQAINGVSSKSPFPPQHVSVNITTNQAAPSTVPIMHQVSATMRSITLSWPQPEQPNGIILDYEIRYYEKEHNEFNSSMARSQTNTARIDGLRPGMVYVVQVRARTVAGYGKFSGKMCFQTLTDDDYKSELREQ
Excerpt: A chemiluminescent AlphaScreen™ bead-based proximity assay suitable for HTS was developed to measure the receptor-ligand interaction formed between EphB1 and EphrinB2 (EB2) ectodomains (FIG. 3). Here, when singlet oxygen molecules generated by high energy irradiation of donor beads travel over a constrained distance to excite acceptor beads, a chemiluminescent signal is generated and detected. If an analyte interferes with the EphB1-EB2 protein-protein interaction, close proximity of the donor and acceptor beads will be disrupted resulting in diminished or lost energy transfer and reduced acceptor bead emission.
Test was conducted in the Alpha assay, to see if purified soluble Reelin (previously shown to bind EphB1 ectodomain) can interfere with EphB1-EB2 binding.
The EphB1-EB2 screen was conducted using 0.8 nM of each protein, 50 ng beads per well, and assessed at 5 μM a library of −240,000 small, drug-like chemicals. […] They were also tested in a counter screen designed to identify non-specific compounds. Here, a single-protein Alpha assay was set up using a dual-tagged EphB2-His-Fc ectodomain protein that can bind both donor and acceptor beads to bring them into proximity. If a selected compound simply absorbs the chemiluminescent signal or interferes with bead function/binding or protein folding, it was hypothesized that it would also reduce signals in the single protein assay, and would consider it a false positive.

Compound | antagonism of EphB1-EB2
COCc1cc(CN2CCN(C)CC2)c(O)c2ncccc12 [Compound 77, 5-(methoxymethyl)-7-((4-methylpiperazin-1-yl)methyl)quinolin-8-ol, reference compound] | did not exhibit any activity
Oc1c(Cl)cc(CN2CCOCC2)c2cccnc12 [Compound 3, 7-chloro-5-(morpholinomethyl)quinolin-8-ol] | may be as effective as A20 at antagonizing EphB1-EB2 and EphB2-EB2 interactions
Oc1ccc(CN2CCOCC2)c2cccnc12 [Compound 1, 5-(morpholinomethyl)quinolin-8-ol] | some inhibitory activity though it was not apparent until higher concentrations
Oc1ccc(CN2CCN(c3ccc(Br)cc3)CC2)c2cccnc12 [Compound 26, 5-((4-(4-bromophenyl)piperazin-1-yl)methyl)quinolin-8-ol] | strong dose-dependent antagonist activity
COc1ccccc1N1CCN(Cc2cc(Br)c(O)c3ncccc23)CC1 [Compound 70, 7-bromo-5-((4-(2-methoxyphenyl)piperazin-1-yl)methyl)quinolin-8-ol] | may be as effective as A20 at antagonizing EphB1-EB2 and EphB2-EB2 interactions
Oc1ccc(CN2CCN(c3ccc(F)cc3F)CC2)c2cccnc12 [Compound 62, 5-((4-(2,4-difluorophenyl)piperazin-1-yl)methyl)quinolin-8-ol] | some inhibitory activity though it was not apparent until higher concentrations
Oc1ccc(CN2CCCCC2)c2cccnc12 [Compound 68, 5-(piperidin-1-ylmethyl)quinolin-8-ol, reference compound] | did not exhibit any activity

molecular target: T2, EphB1-EphrinB2 (Rattus norvegicus, UniProt P09759); test: Octet RED384, immobilized rat EphB1-Fc binding to 30 nM mouse EB2-His (400 sec / 500 sec); set-up: species or system mouse EphrinB2; conditions: Relative Dissociation IC50, rEphB1-mEphrinB2; immobilized rat EphB1; 50 nM soluble mouse EphrinB2; dissociation; relative
T2 construct: rat EphB1-Fc residues 18-538; mouse EB2-His residues 18-232; purchased R&D Systems (EphB1-Fc); Sino Biologicals (EB2-His)
T2 sequence (P09759 18-538): T1 sequence (P09759 18-538)
Procedure: FIGS. 9A-9B depict Octet RED384 kinetic analysis sensorgram data of 30 nM soluble mouse EphrinB2 (mEB2-His) protein binding to sensorchip immobilized rat EphB1-Fc (FIG. 9A) or mouse EphB4-Fc (FIG. 9B) protein and effect of increased concentration of A20. Association time was for 400 sec and dissociation time was for 500 sec. Binding assays were conducted in PBS containing 0.05% Tween-20 and 1% DMSO.
The experiments described above involve measurements following long-term incubation of proteins with compound and thus represent information after interaction homeostasis has been achieved (FIG. 5A, FIG. 5B, FIG. 5C, and FIG. 5D) or after complexes are extensively washed (ELISAs and pulldowns, FIG. 8). To further analyze biophysical activity of A20 in real-time, kinetic studies were performed using an Octet® RED384 system to visualize the effect of compound on EphB1-EB2 protein-protein binding dynamics. In these experiments, EphB1-Fc ectodomain protein was first sparsely immobilized onto a set of Octet biosensors, […], 1, 10, or 100 μM A20 for a 400 sec association step followed by exposure to buffer only for a 500 sec dissociation step. […] The sensorgram provides various data of the binding kinetics, such as on rates (kon), off rates (koff), and equilibrium dissociation constant (KD). […] Specifically, EphB2 forms a dimer with EphrinB2, and that two dimers then assemble together into a circular tetramer structure (see FIG. 10 and Himanen J P, Rajashankar K R, Lackmann M, Cowan C A, Henkemeyer M, and Nikolov DB. (2001). Crystal structure of an Eph receptor-ephrin complex. Nature 414:933-8, which is incorporated herein by reference in its entirety).
The distinct dimerization and tetramerization interfaces are indicated. Circular tetramers further cluster together to pack in the crystal via additional ligand-ligand (red arrow) and receptor-receptor (blue arrow) interfaces. Many studies by multiple groups show the circular tetramer and tetramer clusters are observed in vivo and that they are needed in order to form the active complex necessary for the transduction of Eph-Ephrin bidirectional signals. […] A variety of methods can be used to compare the different sensorgrams obtained from a dose-dependent run of a drug compound to quantify its LA activity and obtain IC50 information. Single time points in the assay can be picked and response signals obtained at the different compound doses can be compared, such as at 380 sec near the end of the association step or at 100 sec after start of the dissociation step.
Antagonists are classified as either competitive/reversible or irreversible, depending on how the particular inhibitor interacts with its protein targets. A reversible antagonist will bind receptor protein via non-covalent intermolecular forces, and it will eventually dissociate from the receptor, freeing the protein to bind either another antagonist chemical in the solution or its bona-fide ligand protein. […] A competitive antagonist is thought to bind to receptor protein at the same binding site/interface as the endogenous ligand (aka Ephrin), but without activating the receptor. Ligand and antagonist will thus compete for the same binding site on the receptor; when antagonist is bound to receptor it will prevent ligand binding and increasing concentrations of an antagonist will displace in a dose-dependent fashion the ability of ligand from binding the receptor. Since, most receptor antagonists participate in a reversible, non-covalent, competitive type of interaction, two Octet experiments were conducted to determine if this was indeed the mode of action of A20. To determine if A20 is a reversible inhibitor/antagonist, rEphB1-Fc was first immobilized onto sensor chips, then pre-exposed to 100 μM A20, then washed to remove A20, and after baseline measurements then tested for binding to 30 nM soluble mEB2-His protein. […]

Compound | IC50 [µM]
Oc1ccc(CN2CCOCC2)c2cccnc12 [Compound 1, 5-(morpholinomethyl)quinolin-8-ol] | 3.29

same assay, conditions: rEphB1-mEphrinB2; immobilized rat EphB1; 50 nM soluble mouse EphrinB2; association; absolute; read-out: Absolute Association IC50

Compound | IC50 [µM]
Oc1ccc(CN2CCOCC2)c2cccnc12 [Compound 1, 5-(morpholinomethyl)quinolin-8-ol] | 100

same assay, conditions: rEphB1-mEphrinB2; immobilized rat EphB1; 50 nM soluble mouse EphrinB2; association; relative; read-out: Relative Association IC50

Compound | IC50 [µM]
Oc1ccc(CN2CCOCC2)c2cccnc12 [Compound 1, 5-(morpholinomethyl)quinolin-8-ol] | 100

same assay, conditions: rEphB1-mEphrinB2; immobilized rat EphB1; 50 nM soluble mouse EphrinB2; dissociation; absolute; read-out: Absolute Dissociation IC50

Compound | IC50 [µM]
Oc1ccc(CN2CCOCC2)c2cccnc12 [Compound 1, 5-(morpholinomethyl)quinolin-8-ol] | 100
